Data taken from ChEMBL document CHEMBL1201862, “PubChem BioAssay data set” (2004).
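All cell lines were grown in 96-well plates and treated with compound for 48 hours. The concentration for 50% growth inhibition is given as GI50.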 Active and inactive are the calls of the source. Rule as the data show it: active = GI50 up to about 1.1 µM and inactive = higher.

Key:
Experiment in all cases: NCI tumour cell line growth inhibition, 48 h
[1] = system: A498
[2] = system: A549
[3] = system: ACHN
[4] = system: HCT-15
[5] = system: HOP-62
[6] = system: HOP-92
[7] = system: HT-29
[8] = system: KM12
[9] = system: M14
[10] = system: NCI-H23
[11] = system: OVCAR-3
[12] = system: SK-MEL-2
[13] = system: SK-OV-3
[14] = system: TK-10
[15] = system: UACC-62
[16] = system: MCF7
[17] = system: MDA-N
[18] = system: NCI/ADR-RES
[19] = system: T47D
[20] = system: DU-145

| Structure (SMILES) | GI50 [1] | GI50 [2] | GI50 [3] | GI50 [4] [µM] | GI50 [5] | GI50 [6] | GI50 [7] | GI50 [8] | GI50 [9] | GI50 [10] | GI50 [11] | GI50 [12] | GI50 [13] | GI50 [14] | GI50 [15] | GI50 [16] | GI50 [17] | GI50 [18] | GI50 [19] | GI50 [20] |
| --- | --- | --- | --- | --- | --- | --- | --- | --- | --- | --- | --- | --- | --- | --- | --- | --- | --- | --- | --- | --- |
| CC1(c2ccccc2Cl)C(C#N)C(=O)NC(=O)C1C#N (stereo unspecified) | 36.4 µM (inactive) | 45.5 µM (inactive) | 34.8 µM (inactive) | > 100 | 30.6 µM (inactive) | 23.5 µM (inactive) | 36.6 µM (inactive) | > 10 µM (inactive) | 42.6 µM (inactive) | 33.3 µM (inactive) | 17.8 µM (inactive) | 49.9 µM (inactive) | 34.6 µM (inactive) | > 100 µM (inactive) | 33.6 µM (inactive) | – | – | – | – | – |
| O[C@@]12Cc3c([nH]c4ccccc34)[C@@H]3Oc4c(-c5ccccc5)ccc5c4[C@@]31CCN(CC1CC1)[C@@H]2C5 | 1.47 µM (inactive) | 1.89 µM (inactive) | 1.44 µM (inactive) | 1.95 | 1.51 µM (inactive) | 5.19 µM (inactive) | 1.77 µM (inactive) | 1.5 µM (inactive) | 1.82 µM (inactive) | 1.78 µM (inactive) | 1.49 µM (inactive) | 1.84 µM (inactive) | 2.95 µM (inactive) | – | 1.8 µM (inactive) | 1.83 µM (inactive) | 1.73 µM (inactive) | 2.51 µM (inactive) | 2 µM (inactive) | – |
| O=C(n1[nH]c(=O)n(-c2ccc([N+](=O)[O-])cc2)c1=O)C(Cl)(Cl)Cl | – | > 75 µM (inactive) | > 75 µM (inactive) | > 75 | > 75 µM (inactive) | – | > 75 µM (inactive) | > 75 µM (inactive) | > 75 µM (inactive) | > 75 µM (inactive) | > 75 µM (inactive) | > 75 µM (inactive) | > 75 µM (inactive) | > 75 µM (inactive) | > 75 µM (inactive) | > 75 µM (inactive) | > 75 µM (inactive) | > 75 µM (inactive) | > 75 µM (inactive) | > 75 µM (inactive) |
| O=c1c2c(c1=O)C1(SCCCS1)c1cc(Cl)ccc1O2 | > 100 µM (inactive) | > 100 µM (inactive) | > 100 µM (inactive) | > 100 | > 100 µM (inactive) | > 100 µM (inactive) | > 100 µM (inactive) | > 100 µM (inactive) | > 100 µM (inactive) | > 100 µM (inactive) | > 100 µM (inactive) | > 100 µM (inactive) | > 100 µM (inactive) | > 100 µM (inactive) | > 100 µM (inactive) | > 100 µM (inactive) | > 100 µM (inactive) | > 100 µM (inactive) | – | > 100 µM (inactive) |
| CC1=NN(C2=NS(=O)(=O)c3ccccc3N2C)C(=O)C1 | 50.8 µM (inactive) | > 100 µM (inactive) | > 100 µM (inactive) | > 100 | > 100 µM (inactive) | > 100 µM (inactive) | > 100 µM (inactive) | > 100 µM (inactive) | > 100 µM (inactive) | > 100 µM (inactive) | > 100 µM (inactive) | > 100 µM (inactive) | > 100 µM (inactive) | > 100 µM (inactive) | > 100 µM (inactive) | > 100 µM (inactive) | – | > 100 µM (inactive) | > 100 µM (inactive) | > 100 µM (inactive) |
| COc1cc(Br)cc2cc(-c3cn4ccsc4n3)c(=O)oc12 | – | 30.3 µM (inactive) | 34.8 µM (inactive) | 33 | 29.1 µM (inactive) | 11.1 µM (inactive) | 40.2 µM (inactive) | 18.9 µM (inactive) | 27.9 µM (inactive) | 39.1 µM (inactive) | 35 µM (inactive) | 58.9 µM (inactive) | 33.7 µM (inactive) | 64.7 µM (inactive) | 22.2 µM (inactive) | 7.19 µM (inactive) | 17 µM (inactive) | 34.2 µM (inactive) | 19.6 µM (inactive) | 30.5 µM (inactive) |
| O=c1oc2ccccc2c2c1Sc1ccccc1N2 | > 100 µM (inactive) | > 10 µM (inactive) | > 100 µM (inactive) | 36.2 | > 100 µM (inactive) | 12.7 µM (inactive) | > 100 µM (inactive) | 70.5 µM (inactive) | > 100 µM (inactive) | 74.8 µM (inactive) | 68.9 µM (inactive) | 2.58 µM (inactive) | – | > 100 µM (inactive) | 50.1 µM (inactive) | 71.3 µM (inactive) | – | > 100 µM (inactive) | 0.897 µM (active) | > 100 µM (inactive) |
| CNc1ccc([S+]([O-])Nc2ccccc2)cc1 (stereo unspecified) | – | 45.6 µM (inactive) | 84.7 µM (inactive) | 43.9 | 58.3 µM (inactive) | – | 97.7 µM (inactive) | 21.8 µM (inactive) | – | 55.7 µM (inactive) | 51.4 µM (inactive) | 86.3 µM (inactive) | – | > 100 µM (inactive) | 23.4 µM (inactive) | 56 µM (inactive) | 46.1 µM (inactive) | 65.6 µM (inactive) | 19.5 µM (inactive) | > 100 µM (inactive) |
| CC1(C)CN=C(Nc2ccc(Cl)cc2)S1 | – | > 100 µM (inactive) | > 100 µM (inactive) | > 100 | > 100 µM (inactive) | 29.5 µM (inactive) | 43.1 µM (inactive) | 90.4 µM (inactive) | > 100 µM (inactive) | 74.6 µM (inactive) | 71.9 µM (inactive) | > 100 µM (inactive) | > 100 µM (inactive) | 65.8 µM (inactive) | 78.7 µM (inactive) | > 100 µM (inactive) | > 100 µM (inactive) | 76.6 µM (inactive) | 42.9 µM (inactive) | > 100 µM (inactive) |
| CCCCNC(=S)N/C=C1\C(=O)Nc2ccccc2C1=O | > 10 µM (inactive) | > 10 µM (inactive) | > 10 µM (inactive) | > 10 | > 10 µM (inactive) | > 10 µM (inactive) | > 10 µM (inactive) | > 10 µM (inactive) | > 10 µM (inactive) | > 10 µM (inactive) | > 10 µM (inactive) | – | – | > 10 µM (inactive) | > 10 µM (inactive) | > 10 µM (inactive) | – | > 10 µM (inactive) | > 10 µM (inactive) | – |
| CCC1(N=[N+]=[N-])C(=O)c2ccccc2N(C)C1=O (stereo unspecified) | > 100 µM (inactive) | > 100 µM (inactive) | > 100 µM (inactive) | > 100 | > 100 µM (inactive) | > 100 µM (inactive) | > 100 µM (inactive) | > 100 µM (inactive) | > 100 µM (inactive) | > 100 µM (inactive) | > 100 µM (inactive) | > 100 µM (inactive) | > 100 µM (inactive) | > 100 µM (inactive) | > 100 µM (inactive) | – | – | – | – | – |
| CCn1c2c(c3c(C(=O)OC)c(O)ccc31)C(=O)c1ccccc1C2=O | – | 13.9 µM (inactive) | 4.69 µM (inactive) | 7.85 | 15.7 µM (inactive) | 5.52 µM (inactive) | 19.3 µM (inactive) | 16.6 µM (inactive) | 14.2 µM (inactive) | 18.3 µM (inactive) | 16.4 µM (inactive) | 11.5 µM (inactive) | 5 µM (inactive) | 32.4 µM (inactive) | – | 16.4 µM (inactive) | 11.9 µM (inactive) | 16.6 µM (inactive) | 8.07 µM (inactive) | 11.1 µM (inactive) |
| Cc1csc2nc3[nH]ncc3c(=O)n12 | – | > 100 µM (inactive) | > 100 µM (inactive) | > 100 | > 100 µM (inactive) | – | > 100 µM (inactive) | > 100 µM (inactive) | > 100 µM (inactive) | > 100 µM (inactive) | > 100 µM (inactive) | > 100 µM (inactive) | > 100 µM (inactive) | – | > 100 µM (inactive) | > 100 µM (inactive) | > 100 µM (inactive) | 66.8 µM (inactive) | > 100 µM (inactive) | – |
| Clc1ccc(-c2nnc(C34CC5CC(CC(C5)C3)C4)o2)cc1 | > 100 µM (inactive) | > 100 µM (inactive) | > 100 µM (inactive) | > 100 | > 100 µM (inactive) | > 100 µM (inactive) | > 100 µM (inactive) | – | > 100 µM (inactive) | > 100 µM (inactive) | > 100 µM (inactive) | > 100 µM (inactive) | > 100 µM (inactive) | – | > 100 µM (inactive) | – | > 100 µM (inactive) | > 100 µM (inactive) | > 100 µM (inactive) | > 100 µM (inactive) |
| C[n+]1c(-c2ccc(/C=N\NC(=O)c3ccc(C(=O)N/N=C/c4ccc(-c5cn6ccsc6[n+]5C)cc4)cc3)cc2)cn2ccsc21 | 17.3 µM (inactive) | 24.5 µM (inactive) | 17.9 µM (inactive) | 16 | 17.9 µM (inactive) | 14.8 µM (inactive) | 15.8 µM (inactive) | 23 µM (inactive) | 17.8 µM (inactive) | 17.8 µM (inactive) | 11.6 µM (inactive) | 30.8 µM (inactive) | 46.5 µM (inactive) | 19.9 µM (inactive) | 20 µM (inactive) | 20.2 µM (inactive) | 32.8 µM (inactive) | 17.7 µM (inactive) | – | 18.5 µM (inactive) |
| NCCCCN(CCCN)C(=O)OCc1ccccc1 | > 100 µM (inactive) | > 100 µM (inactive) | > 100 µM (inactive) | > 100 | > 100 µM (inactive) | > 100 µM (inactive) | > 100 µM (inactive) | > 100 µM (inactive) | > 100 µM (inactive) | > 100 µM (inactive) | > 100 µM (inactive) | > 100 µM (inactive) | > 100 µM (inactive) | > 100 µM (inactive) | > 100 µM (inactive) | > 100 µM (inactive) | – | > 100 µM (inactive) | > 100 µM (inactive) | > 100 µM (inactive) |
